Measured values as given in ChEMBL document CHEMBL6083269, “Design, synthesis, in vitro and in vivo trypanosomaticidal efficacy of novel 5-nitroindolylazines” (Eur J Med Chem, 2024).
Active and inactive are the calls of the source. The rule behind the calls is not given here.

What was measured:
Leishmania major [1] = experiment: Antileishmanial activity against Leishmania major IR-173 (MHO-M/IR/-173) promastigote incubated for 48 hrs by resazurin dye based plate reader assay; type: functional, organism-based
[2] = Selectivity index, ratio of IC50 for human THP-1 cells to IC50 for Trypanosoma cruzi Tulahuen C4 strain; type: toxicity, cell-based; settings: read-out: Ratio IC50
Trypanosoma cruzi [3] = experiment: Antitrypanosomal activity against Trypanosoma cruzi Tulahuen C4 strain amastigotes infected in Vero cells incubated for 72 hrs by beta-galactosidase based assay; type: functional, organism-based
[4] = Selectivity index, ratio of IC50 for african green monkey Vero cells to IC50 for Leishmania major IR-173 (MHO-M/IR/-173) promastigote; type: toxicity, cell-based; settings: read-out: Ratio IC50
[5] = Selectivity index, ratio of CC50 for MDBK to IC50 for Trypanosoma brucei brucei GUTat3.1; type: toxicity, cell-based; settings: cattle, MDBK cells; read-out: Ratio CC50/IC50
Leishmania major [6] = experiment: Leishmanicidal activity against Leishmania major NIH-S (MHOM/SN/74/Seidman) amastigote incubated for 48 hrs by resazurin dye based plate reader assay; type: functional, organism-based
[7] = system: Trypanosoma brucei gambiense; experiment: Trypanocidal activity against Trypanosoma brucei gambiense IL1922 incubated for 72 hrs by CellTiter-Glo reagent based […] analysis; type: functional, organism-based; settings: IL1922, 72 h
[8] = system: Trypanosoma brucei rhodesiense; experiment: Trypanocidal activity against Trypanosoma brucei rhodesiense IL1501 incubated for 72 hrs by CellTiter-Glo reagent based […] analysis; type: functional, organism-based; settings: IL1501, 72 h
Leishmania major [9] = experiment: Antileishmanial activity against Leishmania major NIH-S (MHOM/SN/74/Seidman) amastigote infected in THP-1 cells assessed as inhibition of parasite growth incubated for 72 hrs by resazurin dye based plate reader assay; type: functional, organism-based; settings: THP-1, 72 h
Leishmania donovani [10] = experiment: Leishmanicidal activity against Leishmania donovani 9515 (MHOM/IN/95/9151) amastigote infected in THP-1 cells incubated for 72 hrs by resazurin dye based plate reader assay; type: functional, organism-based; settings: THP-1, 72 h
Trypanosoma evansi = experiment: Trypanocidal activity against Trypanosoma evansi Tansui incubated for 72 hrs by CellTiter-Glo reagent based […] analysis; type: functional, organism-based
[11] = Selectivity index, ratio of CC50 for MDBK to IC50 for Trypanosoma brucei rhodesiense IL1501; type: toxicity, cell-based; settings: cattle, MDBK cells; read-out: Ratio CC50/IC50
[12] = Selectivity index, ratio of IC50 for african green monkey Vero cells to IC50 for Leishmania donovani 9515 (MHOM/IN/95/9151) promastigote; type: toxicity, cell-based; settings: read-out: Ratio IC50
[13] = Selectivity index, ratio of IC50 for human THP-1 cells to IC50 for Leishmania donovani 9515 (MHOM/IN/95/9151) promastigote; type: toxicity, cell-based; settings: read-out: Ratio IC50
Trypanosoma congolense [14] = experiment: Antitrypanosomal activity against Trypanosoma congolense IL3000 infected in BALB/c mouse assessed as animal survival at 100 mg/kg, po or 10 mg/kg, ip administered for 7 consecutive days starting from 6 days post infection and measured after 13 days post infection; type: functional, organism-based; settings: time 7.0 day
[15] = Selectivity index, ratio of IC50 for african green monkey Vero cells to IC50 for leishmanicidal activity against Leishmania donovani 9515 (MHOM/IN/95/9151) amastigote; type: toxicity, cell-based; settings: read-out: Ratio IC50
[16] = Selectivity index, ratio of IC50 for african green monkey Vero cells to IC50 for Trypanosoma cruzi Tulahuen C4 strain; type: toxicity, cell-based; settings: read-out: Ratio IC50
[17] = Selectivity index, ratio of IC50 for human THP-1 cells to IC50 for leishmanicidal activity against Leishmania donovani 9515 (MHOM/IN/95/9151) amastigote; type: toxicity, cell-based; settings: read-out: Ratio IC50
Trypanosoma cruzi [18] = experiment: Antitrypanosomal activity against Trypanosoma cruzi Tulahuen C4 strain trypomastigotes assessed as growth inhibition at 20 uM incubated for 48 hrs by resazurin dye based assay; type: functional; set-up: scale not given: the % may be the effect or the level left
[19] = Selectivity index, ratio of IC50 for human THP-1 cells to IC50 for leishmanicidal activity against Leishmania major NIH-S (MHOM/SN/74/Seidman); type: toxicity, cell-based; settings: read-out: Ratio IC50
[20] = Selectivity index, ratio of IC50 for human THP-1 cells to IC50 for Leishmania major IR-173 (MHO-M/IR/-173) promastigote; type: toxicity, cell-based; settings: read-out: Ratio IC50
[21] = system: Trypanosoma brucei brucei; experiment: Trypanocidal activity against Trypanosoma brucei brucei GUTat3.1 incubated for 72 hrs by CellTiter-Glo reagent based […] analysis; type: functional, organism-based; settings: GUTat3.1, 72 h
[22] = Selectivity index, ratio of IC50 for human THP-1 cells to IC50 for static antileishmanial activity against Leishmania major NIH-S (MHOM/SN/74/Seidman) amastigote; type: toxicity, cell-based; settings: read-out: Ratio IC50
[23] = Selectivity index, ratio of CC50 for MDBK to IC50 for Trypanosoma evansi Tansui; type: toxicity, cell-based; settings: cattle, MDBK cells; read-out: Ratio CC50/IC50
[24] = Selectivity index, ratio of IC50 for african green monkey Vero cells to IC50 for static antileishmanial activity against Leishmania major NIH-S (MHOM/SN/74/Seidman) amastigote; type: toxicity, cell-based; settings: read-out: Ratio IC50
[25] = Selectivity index, ratio of CC50 for MDBK to IC50 for Trypanosoma congolense IL3000; type: toxicity, cell-based; settings: cattle, MDBK cells; read-out: Ratio CC50/IC50
[26] = Cytotoxicity against green monkey Vero cells incubated for 48 hrs by resazurin dye based assay; type: toxicity, cell-based; settings: African green monkey (Chlorocebus sabaeus)
[27] = Selectivity index, ratio of IC50 for african green monkey Vero cells to IC50 for leishmanicidal activity against Leishmania major NIH-S (MHOM/SN/74/Seidman) amastigote; type: toxicity, cell-based; settings: read-out: Ratio IC50
[28] = Cytotoxicity against MDBK cells incubated for 72 hrs by CCK8 assay; type: toxicity, cell-based, Bos taurus; settings: cattle, MDBK cells
Leishmania donovani [29] = experiment: Antileishmanial activity against Leishmania donovani 9515 (MHOM/IN/95/9151) amastigote infected in THP-1 cells assessed as inhibition of parasite growth incubated for 72 hrs by resazurin dye based plate reader assay; type: functional, organism-based; settings: THP-1, 72 h
Leishmania donovani [30] = experiment: Antileishmanial activity against Leishmania donovani 9515 (MHOM/IN/95/9151) promastigote incubated for 48 hrs by resazurin dye based plate reader assay; type: functional, organism-based
[31] = Selectivity index, ratio of CC50 for MDBK to IC50 for Trypanosoma brucei gambiense IL1922; type: toxicity, cell-based; settings: cattle, MDBK cells; read-out: Ratio CC50/IC50
Trypanosoma congolense [32] = experiment: Trypanocidal activity against Trypanosoma congolense IL3000 incubated for 72 hrs by CellTiter-Glo reagent based […] analysis; type: functional, organism-based; settings: IL3000, 72 h
[33] = Selectivity index, ratio of IC50 for human THP-1 cells to IC50 for static antileishmanial activity against Leishmania donovani 9515 (MHOM/IN/95/9151) amastigote; type: toxicity, cell-based; settings: read-out: Ratio IC50
[34] = Selectivity index, ratio of CC50 for MDBK to IC50 for Trypanosoma equiperdum IVM-t1; type: toxicity, cell-based; settings: cattle, MDBK cells; read-out: Ratio CC50/IC50
Trypanosoma congolense [35] = experiment: Antitrypanosomal activity against Trypanosoma congolense IL3000 infected in BALB/c mouse assessed as increase in animal survival time at 100 mg/kg, po or 10 mg/kg, ip administered for 7 consecutive days starting from 6 days post infection (reference value: 9 day); type: functional; settings: time 7 day
Trypanosoma equiperdum = experiment: Trypanocidal activity against Trypanosoma equiperdum IVM-t1 incubated for 72 hrs by CellTiter-Glo reagent based […] analysis; type: functional, organism-based; settings: IVM-t1, 72 h
[36] = Cytotoxicity against human […]-differentiated THP-1 cells incubated for 72 hrs by resazurin dye based assay; type: toxicity, cell-based
[37] = Selectivity index, ratio of IC50 for african green monkey Vero cells to IC50 for static antileishmanial activity against Leishmania donovani 9515 (MHOM/IN/95/9151) amastigote; type: toxicity, cell-based; settings: read-out: Ratio IC50
[38] = Selectivity index, ratio of IC50 for african green monkey Vero cells to IC50 for Leishmania donovani; type: toxicity, cell-based; settings: read-out: Ratio IC50

SMILES | IC50 (Leishmania major [1]) [nM] | IC50 (Trypanosoma cruzi [3]) [nM] | IC50 (Leishmania major [6]) [nM] | IC50 [7] [nM] | IC50 [8] [nM] | IC50 (Leishmania major [9]) [nM] | IC50 (Leishmania donovani [10]) [nM] | IC50 (Trypanosoma evansi) [nM] | selectivity ratio [15] | selectivity ratio [17] | Activity (Trypanosoma cruzi [18]) [%] | IC50 [21] [nM] | selectivity ratio [25] | IC50 at 48 h [26] [nM] | CC50 at 72 h [28] [nM] | IC50 (Leishmania donovani [29]) [nM] | IC50 (Leishmania donovani [30]) [nM] | IC50 (Trypanosoma congolense [32]) [nM] | selectivity ratio [33] | IC50 (Trypanosoma equiperdum) [nM] | also measured
C#CCn1cc(/C=N\N=C\c2ccc([N+](=O)[O-])o2)c2cc([N+](=O)[O-])ccc21 | 80 | 1210 | 1410 | 680 | 750 | 1090 | 3290 | 1960 | 2 | 20 | 22 | 1240 | > 3280 | 8070 | > 274000 | 3270 | 200 | 80 | 20 | 1880 | selectivity ratio [2]: 55; selectivity ratio [4]: 106; selectivity ratio [5]: > 222; selectivity ratio [11]: > 364; selectivity ratio [12]: 40; selectivity ratio [13]: 332; Activity (Trypanosoma congolense [14]): inactive; selectivity ratio [16]: 6; selectivity ratio [19]: 47; selectivity ratio [20]: 829; selectivity ratio [22]: 60; selectivity ratio [23]: > 140; selectivity ratio [24]: 7; selectivity ratio [27]: 6; selectivity ratio [31]: > 405; selectivity ratio [34]: > 146; Survival (Trypanosoma congolense [35]): 9.5 days; IC50 at 72 h [36]: 66300 nM; selectivity ratio [37]: 2
O=Cc1ccc([N+](=O)[O-])o1 | – | – | – | – | – | – | – | – | – | – | – | – | – | – | – | – | – | – | – | – | selectivity ratio [38]: 2
C#CCn1cc(/C=N\N=C\c2ccc([N+](=O)[O-])s2)c2cc([N+](=O)[O-])ccc21 | > 10000 | 820 | 1740 | 250 | 350 | 360 | 3510 | 300 | 15 | > 28 | 59 | 330 | > 2950 | 51100 | > 263000 | 2340 | 1950 | 90 | 42 | 340 | selectivity ratio [2]: 121; selectivity ratio [5]: > 790; selectivity ratio [11]: > 753; selectivity ratio [12]: 26; selectivity ratio [13]: 51; Activity (Trypanosoma congolense [14]): inactive; selectivity ratio [16]: 62; selectivity ratio [19]: 58; selectivity ratio [22]: 278; selectivity ratio [23]: > 864; selectivity ratio [24]: 142; selectivity ratio [27]: 25; selectivity ratio [31]: > 1070; selectivity ratio [34]: > 780; Survival (Trypanosoma congolense [35]): 10.5 days; IC50 at 72 h [36]: > 100000 nM; selectivity ratio [37]: 22
O=C(Cn1ccnc1[N+](=O)[O-])NCc1ccccc1 [BENZNIDAZOLE] | – | 2700 | – | – | – | – | – | – | – | – | 100 | – | – | – | – | – | – | – | – | – | –
C#CCn1cc(\C=N/N=C/C=C/c2ccccc2)c2cc([N+](=O)[O-])ccc21 | 8080 | – | > 10000 | > 70200 | > 70200 | > 10000 | 690 | > 70200 | 37 | 52 | – | > 70200 | > 29.9 | 24500 | 9200 | 340 | > 10000 | 9400 | 75 | > 70200 | selectivity ratio [4]: 3; selectivity ratio [20]: 4; IC50 at 72 h [36]: 35800 nM; selectivity ratio [37]: 75
O=[N+]([O-])c1ccc(/C=N/N=C/c2ccc(OCc3ccccc3)cc2)o1 | – | – | – | – | – | – | – | – | – | – | – | – | – | – | – | – | – | – | – | – | selectivity ratio [38]: 400
